According to article PMC9181915, “Synthesis and Anti-Neuroinflammatory Activity of 1,7-diphenyl-1,4-heptadien-3-ones in LPS-Stimulated BV2 Microglia Via Inhibiting NF-κB/MAPK Signaling Pathways” (Molecules, 2022):

Experiments:
[1] = MTT cell viability assay in BV2 microglia cells; assay type: cell-based; settings: mouse, mean ± SD, n = 3
Protocol: (§1) The BV2 microglial cells were purchased from the China Center for Type Culture Collection, CCTCC (Wuhan, Hubei). BV2 microglia cells were incubated in DMEM media supplemented with 10% (v/v) FBS, 100 U/mL penicillin G and […] streptomycin at 37 °C with 5% CO2.
Cell viability assays were evaluated using a 3-(4,5-dimethylthiazol-2-yl)-2,5-diphenyltetrazolium bromide (MTT) assay. BV2 microglia cells were seeded in 96-well plates at a density of 1.6 × 10^5 cells/well in complete medium and incubated for 24 h. Then, the culture medium was sucked and discarded, and sterile PBS was added for washing, and then PBS was removed. Then the cells were treated with different concentrations of target compounds for 24 h. An amount equal to 100 μL of MTT was added to each well and the cells were further incubated for 2–4 h. An amount equal to 150 μL of DMSO was added into a 96-well plate and vibrated with micro-oscillator for 10 min. The optical density (A) was measured at […] on a microplate reader. The inhibitory rate of the various concentrations of agents in BV2 cells was calculated using the following formula:Cell viability (%) = [A492 (sample) − A492 (blank)]/[A492 (control) − A492 (blank)] × 100%

JNK = experiment: LPS-induced JNK phosphorylation in BV2 cells (Western blot); assay type: cell-based; settings: 3 μM, 1 h pretreatment, LPS 1 μg/mL 24 h
Protocol: (§2) CU-19, CU-21 and LPS were configured with DMEM medium (2% FBS). The cells were collected and washed three times with ice-cold PBS. The lysate (containing 1% protease inhibitor and phosphatase inhibitor) was added to the collected cells for suspension, and the cells were lysed by ultrasonic crusher. Then the cell lysates were centrifuged (14,000 rpm, 10 min, 4 °C) […] and collect the supernatant. Aliquots of the lysates were separated on 10% sodium dodecyl sulphate (SDS)-polyacrylamide gel electrophoresis (PAGE) and then electro blotted onto a polyvinylidene difluoride (PVDF) membrane. The blots were blocked with 5% (w/v) nonfat dry milk for 2 h at room temperature, followed by incubation with specific primary antibodies at 4 °C overnight. Blots were washed with PBST and incubated with secondary antibody for 2 h, after which an ECL reagent was used for chemiluminescent detection.

p38 = experiment: LPS-induced p38 phosphorylation in BV2 cells (Western blot); assay type: cell-based; settings: 3 μM, 1 h pretreatment, LPS 1 μg/mL 24 h
Protocol: as §2

ERK = experiment: LPS-induced ERK phosphorylation in BV2 cells (Western blot); assay type: cell-based; settings: 3 μM, 1 h pretreatment, LPS 1 μg/mL 24 h
Protocol: as §2

[2] = tested on: LPS-induced NO release in BV2 cells; experiment: Inhibition of LPS-induced NO release in BV2 cells; assay type: cell-based; settings: Mus musculus, BV-2; for IC50: BV2 cells, 0.3, 1.0, 3.0 μM, LPS 1 μg/mL 24 h, mean ± SD, n = 3, read-out: IC50 to inhibit LPS-induced NO release
Protocol: as §1
Nitrite, a stable product of nitric oxide, was used to assess NO production. To study the effects of the compounds on NO production, BV2 microglia cells in the logarithmic phase were plated at 1 × 10^5 cells/well in a 24-well microplate and incubated in DMEM medium (10% FBS) overnight. The cells were pretreated with various concentrations of the test compounds for 1 h and further co-cultured with 1 μg/mL LPS and 5% CO2 for 24 h in a 37 °C incubator; then, the supernatant was taken and stored at −20 °C for NO detection. The target compound and LPS were configured with DMEM medium (2% FBS). The determination of NO was carried out according to the instructions. Unpretreated and unstimulated BV2 microglia cells were conducted as the blank control group. The absorbance value was determined at 540 nm, and the corresponding NO content was calculated by using the standard curve. The NO inhibitory rate of the various concentrations of agents in BV2 cells was calculated as per the following formula:Inhibition rate (%) = (LPS(NO concentration) − sample(NO concentration))/(LPS(NO concentration) − negative control(NO concentration)) × 100%.

[3] = In vivo pharmacokinetic study in rats; design: species or system Sprague–Dawley male rats; settings: male, Sprague-Dawley, rat plasma, single intravenous dose 20 mg/kg, mean ± SD, n = 4
Protocol: After a single intravenous dose of 20 mg/kg, 0.5 mL of blood was obtained from the fossa orbitalis veniplex of rats at 5, 10, 20, 30, 45, 60, 120, 180 and 240 min. HPLC was used to determine the concentration of each compound in plasma and the DAS software was used for the noncompartmental pharmacokinetic analysis of the plasma concentration–time data.
Sprague–Dawley male rats, 200–240 g, were housed in cages in an airconditioned room with light dark cycle of 12 h before the experiment started. The animals were fasted for 12 h with water ad libitum. […] The administration volume was 6 mL per kg of body weight. The compounds were dissolved in PEG400 (10% of the administration volume) and water (90% of the administration volume) and sonicated for 30 min. After tail vein injection administration at a dose of 20 mg/kg, 0.5 mL blood was obtained from fossa orbitalis veniplex of rats at 5, 10, 20, 30, 45, 60, 120, 180 and 240 min. Whole blood samples were collected in heparinized tubes and the plasma was immediately centrifuged (10,000 rpm, 10 min, 4 °C) and then stored at −20 °C until analysis. The calibration standards and the plasma samples were extracted by protein precipitation using methanol.

[4] = pretreated 1 h, then LPS 1 μg/mL for 24 h, BV2 cells

With `COc1cc(/C=C/C(=O)CC(=O)/C=C/c2ccc(O)c(OC)c2)ccc1O` [CU, curcumin, reference compound] the viability at 24 h, 1 µM [1] was 97.57 ± 0.05%, the viability at 24 h, 3 µM [1] was 95.26 ± 0.05% and the viability at 24 h, 10 µM [1] was 28.15 ± 0.19%. For the same compound, the “JNK phosphorylation compared to the LPS group” value (JNK) was “inhibited”, the “p38 phosphorylation compared to the LPS group” value (p38) was “inhibited” and the “ERK phosphorylation compared to the LPS group” value (ERK) was “inhibited”. The inhibition at 3 µM [2, 4] was 37.4%, the IC50 [2] was over 3000 nM and the AUC(0-inf) [3] was 678 ng·h/mL. It also gave an AUC(0-t) [3] of 652 ng·h/mL, a Cmax [3] of 2450 ± 132 ng/mL and a half-life [3] of 24.7 ± 16.9 min. The MRT last ([3]; read-out: MRT (0-t) (converted)) was 14.1 min and the MRT inf ([3]; read-out: MRT (0-∞) (converted)) was 20.5 min.

`COc1ccc(CC/C=C/C(=O)/C=C/c2ccc(O)cc2)cc1` [CU-13, (1E,4E)-1-(4-hydroxyphenyl)-7-(4-methoxyphenyl)-1,4-heptadien-3-one] showed a viability at 24 h, 1 µM [1] of 109.5 ± 0.27%, a viability at 24 h, 3 µM [1] of 91.4 ± 0.32% and a viability at 24 h, 10 µM [1] of 28.5 ± 1.3%. It also gave a melting point of 136 to 138 °C and an inhibition at 3 µM [2, 4] of 0%.

Work on `COc1ccc(/C=C/C(=O)/C=C/CCc2ccc(OC)cc2)cc1` [CU-14, (1E,4E)-1,7-bis(4-methoxyphenyl)-1,4-heptadien-3-one] yielded a viability at 24 h, 1 µM [1] of 97.96 ± 0.01%, a viability at 24 h, 3 µM [1] of 97.44 ± 0.03% and a viability at 24 h, 10 µM [1] of 18.06 ± 0.1%. It also gave a melting point of 65 to 67 °C, an inhibition at 3 µM [2, 4] of 49.7% and an IC50 [2] of 2430 ± 450 nM.

`COc1cc(/C=C/C(=O)/C=C/CCc2ccccc2)cc(OC)c1OC` [CU-4, (1E,4E)-7-phenyl-1-(3,4,5-trimethoxyphenyl)-1,4-heptadien-3-one] showed a viability at 24 h, 1 µM [1] of 107.23 ± 0.09%, a viability at 24 h, 3 µM [1] of 73.92 ± 0.3% and a viability at 24 h, 10 µM [1] of 16.6 ± 0.45%. It also gave a melting point of 95 to 97 °C and an inhibition at 1 µM ([2]; 1 µM, pretreated 1 h, then LPS 1 μg/mL for 24 h, BV2 cells) of 3.1%.
